Values after ≈ are worked out from the molar mass of the structure shown.
Key:
Poria Vaporaria = assay: MIC determination in agar (beer wort and peptone); type: cell-based
Method: (§1) Determination of the minimum inhibitory concentration (MIC)
(§2) The active compound according to the invention is added, in concentrations of 2 mg/l to 5,000 mg/l, to an agar which is prepared from beer wort and peptone. After storing for 2 weeks at 28° C. and 60-70% relative atmospheric humidity the MIC is determined.

Lentinus tigrinus = assay: MIC determination in agar (beer wort and peptone); type: cell-based
Method: as §1, §2

Chaetomium globosum = assay: MIC determination in agar (beer wort and peptone); type: cell-based
Method: as §1, §2

Coniophora cerebella = assay: MIC determination in agar (beer wort and peptone); type: cell-based
Method: as §1, §2

[1] = tested on: Ceratocystis coerulenceus; assay: MIC determination in agar (beer wort and peptone); type: cell-based
Method: as §1, §2

Ceratocystis pini = assay: MIC determination in agar (beer wort and peptone); type: cell-based
Method: as §1, §2

Ceratocystis piceae = assay: activity against wood-damaging fungi; type: cell-based
[2] = Solubilities in % by weight; type: physicochemical
Excerpt: Solubilities in % by weight of N,N-dimethyl-N'-p-tolyl-N'-dichlorofluoromethylthio-sulphamide (A) compared with N,N-dimethyl-N'-phenyl-N'-dichlorofluoromethylthio-sulphamide (B) and N-dichlorofluoromethylthio-phthalimide (C).

male rats [3] = assay: Cutaneous treatment of male rats; type: in vivo, rat; conditions: cutaneous treatment
[4] = Cutaneous treatment of male rats; type: in vivo, rat; conditions: rat, in vivo, topical or ocular, read-out: LD50 cutaneously
[5] = Peroral toxicity, single administration by probang to male rats; conditions: rat, in vivo, po, dissolved in acetone, Probit analysis, read-out: LD50 perorally
Method: The LD50 was calculated by means of Probit analysis (Fink et al, Methods of information in medicin 5, 19, 1966).

Coriolus versicolor = assay: activity against wood-damaging fungi; type: cell-based
[6] = cumulative and percutaneous toxic action; type: in vivo; conditions: in contrast to known active compounds, for example pentachlorophenol
male rats [7] = conditions: comparison substance pentachlorophenol; cited from earlier work
rats = conditions: Caines, Toxycology and Applied Pharmacology 14, 515 (1969); cited from earlier work
[8] = 336 h, 2 weeks at 28° C., 60-70% relative humidity
[9] = Benzine fraction, boiling point 140-190° C.
[10] = Mixture of aromatic hydrocarbons, boiling point 159-175° C.

Structure (SMILES): Cc1ccc(N(SC(F)(Cl)Cl)S(=O)(=O)N(C)C)cc1 [A, N,N-dimethyl-N'-p-tolyl-N'-dichlorofluoromethylthio-sulphamide]
- MIC (Poria Vaporaria; 336 h, Poria Vaporaria, 2 weeks at 28° C., 60-70% relative humidity): 2 µg/mL (≈ 5.76 µM)
- active against wood-damaging fungi (Poria Vaporaria; Poria vaporaria): active
- active against wood-damaging fungi (Lentinus tigrinus): active
- MIC (Lentinus tigrinus; [8]): 5 µg/mL (≈ 14.4 µM)
- active against wood-damaging fungi (Chaetomium globosum): active
- MIC (Chaetomium globosum; [8]): 10 µg/mL (≈ 28.8 µM)
- active against wood-damaging fungi (Coniophora cerebella): active
- MIC (Coniophora cerebella; [8]): 10 µg/mL (≈ 28.8 µM)
- active against wood-damaging fungi [1]: active
- MIC [1, 8]: 20 µg/mL (≈ 57.6 µM)
- active against wood-damaging fungi (Ceratocystis pini): active
- MIC (Ceratocystis pini; [8]): 20 µg/mL (≈ 57.6 µM)
- active against wood-damaging fungi (Ceratocystis piceae): active
- Solubility [2, 9]: 2.5 % by weight
- Solubility ([2]; Ethyl acetate): 33 % by weight
- Solubility ([2]; Methanol): 5 % by weight
- Solubility [2, 10]: 20 % by weight
- Solubility ([2]; Xylene): 29 % by weight
- solubility (in words) ([2]; organic solvents): very readily soluble
- percutaneous toxicity compared with the other sulphamide (in words) (male rats [3]): just as low a toxicity
- LD50 [4]: > 500 mg/kg
- LD50 [5]: > 2500 mg/kg
- active against wood-damaging fungi (Coriolus versicolor): active
- cumulative or percutaneous toxic action (in words) [6]: neither a cumulative nor a percutaneous toxic action

Structure (SMILES): CN(C)S(=O)(=O)N(SC(F)(Cl)Cl)c1ccccc1 [B, N,N-dimethyl-N'-phenyl-N'-dichlorofluoromethylthio-sulphamide]
- Solubility [2, 9]: 1.2 % by weight
- Solubility ([2]; Ethyl acetate): 11 % by weight
- Solubility ([2]; Methanol): 1.5 % by weight
- Solubility [2, 10]: 7.5 % by weight
- Solubility ([2]; Xylene): 6.5 % by weight
- solubility (in words) ([2]; formulating agents customary for wood protection agents): very poor solubility

Structure (SMILES): Oc1c(Cl)c(Cl)c(Cl)c(Cl)c1Cl [Pentachlorophenol]
- LD50 cutaneously (male rats [7]): 325 mg/kg
- percutaneous toxic action (in words) (male rats [7]): has a toxic action
- LD50 perorally (rats): 160 mg/kg of body weight

From patent publication US4427698A, “Use of N,N-dimethyl-N'-p-tolyl-N'-dichlorofluoromethylthio-sulphamide for combating fungi which damage wood” (Bayer Aktiengesellschaft, priority 1978, dated 1984)
